These are literature values, as cited in patent US12208104B2, “Pharmaceutical compositions suitable for articular delivery and use thereof in treatment of joint pain” (TAIWAN LIPOSOME CO., LTD., priority 2018, dated 2025).

SMILES strings stand for the structures.

The test system of this data set is cartilage. The following applies: repeated intra-articular injections.

For the compound `C[C@@H]1C[C@H]2[C@@H]3CCC4=CC(=O)C=C[C@]4(C)[C@@]3(F)[C@@H](O)C[C@]2(C)[C@@]1(O)C(=O)CO` [dexamethasone], the cartilage damage result is recorded as “cartilage damage has been reported”.

Regarding `C[C@]12C=CC(=O)C=C1CC[C@H]1[C@@H]3C[C@@H](O)[C@](O)(C(=O)CO)[C@@]3(C)C[C@H](O)[C@@]12F` [triamcinolone], the cartilage damage entry is “cartilage damage has been reported”.
